Peptide text beside a SMILES is read from it.
Tests used:
FPR2 = target: T1, FPR2 (Homo sapiens, UniProt P25090); experiment: Change in calcium activity by peptide (Fura-2) in RBL cells overexpressing FPR2; format: cell-based; conditions: calcium activity (Fura-2), graded per Table 3, read-out: EC50 for [Ca^2+] FPR2
T1 construct: expressed in transfected cells; host or cells: RBL cells (RBL-FPR2)
T1 sequence (P25090 1-351): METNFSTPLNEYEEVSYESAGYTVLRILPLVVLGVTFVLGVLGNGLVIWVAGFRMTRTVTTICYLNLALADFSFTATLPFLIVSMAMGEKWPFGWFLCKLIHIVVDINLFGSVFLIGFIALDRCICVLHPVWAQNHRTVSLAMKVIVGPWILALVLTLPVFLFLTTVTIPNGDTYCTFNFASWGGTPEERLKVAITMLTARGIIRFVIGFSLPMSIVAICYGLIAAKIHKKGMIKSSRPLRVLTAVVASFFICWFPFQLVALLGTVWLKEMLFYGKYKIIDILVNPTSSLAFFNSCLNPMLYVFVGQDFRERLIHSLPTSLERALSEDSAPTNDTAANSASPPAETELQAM
Experimental: The present inventors observed changes in calcium ion permeability to confirm whether the immunomodulatory peptide candidates prepared according to one example of the present invention activate the immune function of a living organism. Specifically, the concentration of calcium ions in cells was measured to confirm whether the peptides activate FPR2.
A peptide dissolved in water or 50% DMSO at a concentration of 0.5 mM was prepared by diluting it to an appropriate concentration in HBSS (Sigma, #55037C)+20 mM HEPES buffer.
In this experiment, the cells were cultured in DMEM (Lonza, #BE12-604F) containing 10% fetal bovine serum (FBS) and 1% penicillin-streptomycin under conditions of 37° C. and 5% CO2.
(§1) The day before measuring calcium activity, the cells were prepared at 3×10^5 cells per well in a 96-well flat clear bottom black plate (Costar, #3603). The prepared cells were treated with a Fura-2 QBT calcium kit (component A; Molecular Devices, #8197) at the same volume per well. After incubation at 37° C. for 1 hour, the cells were incubated in a dark room at room temperature for 30 minutes. After the Fura-2-treated cells, the prepared peptide, and a dedicated tip were placed at each section of FlexStation 3 Multi-Mode Microplate Reader (Molecular Devices, #Flex3), changes in calcium activity caused by the peptides were measured using SoftMax Pro 7 Software (Molecular Devices, #FLEX3-INSTALL-OS).

FPR1 = target: T2, FPR1 (Homo sapiens, UniProt P21462); experiment: Change in calcium activity by peptide, FPR1 activation effect; format: cell-based; conditions: calcium activity (Fura-2), graded per Table 3, read-out: EC50 for [Ca^2+] FPR1
T2 sequence (P21462 1-350): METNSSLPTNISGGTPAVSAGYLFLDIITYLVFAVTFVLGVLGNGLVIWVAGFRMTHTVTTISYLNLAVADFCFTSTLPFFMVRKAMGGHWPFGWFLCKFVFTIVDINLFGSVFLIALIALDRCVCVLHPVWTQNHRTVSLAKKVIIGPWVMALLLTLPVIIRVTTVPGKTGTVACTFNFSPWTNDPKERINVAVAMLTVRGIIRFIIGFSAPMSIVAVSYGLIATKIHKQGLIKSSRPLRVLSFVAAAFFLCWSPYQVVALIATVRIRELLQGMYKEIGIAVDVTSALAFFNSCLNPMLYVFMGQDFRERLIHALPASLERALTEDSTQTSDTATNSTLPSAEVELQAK
Experimental: as §1, with “#FLEX3-INSTALL-OS). […]” for “#FLEX3-INSTALL-OS).”

Structure (SMILES)	EC50 (FPR2) [nM]	EC50 (FPR1) [nM]
CSCC[C@@H](NC(=O)[C@H](Cc1ccc(O)cc1)NC(=O)[C@H](CCCCN)NC(=O)[C@H](Cc1ccc(O)cc1)NC(=O)[C@H](CCCNC(=N)N)NC(=O)[C@H](Cc1c[nH]c2ccccc12)NC(=O)[C@@H](N)CCCNC(=N)N)C(N)=O [Peptide 32] (HELM PEPTIDE1{R.W.R.Y.K.Y.[dM].[am]}$$$$V2.0)	11 to 100	> 10000
CCCCCCCC(=O)N[C@@H](CCCNC(=N)N)C(=O)N[C@@H](Cc1c[nH]c2ccccc12)C(=O)N[C@@H](CCCNC(=N)N)C(=O)N[C@@H](Cc1ccc(O)cc1)C(=O)N[C@@H](CCCCN)C(=O)N[C@@H](Cc1ccc(O)cc1)C(=O)N[C@H](CCSC)C(N)=O [Peptide 34] (HELM PEPTIDE1{[CCCCCCCC(=O)[*:2]].R.W.R.Y.K.Y.[dM].[am]}$$$$V2.0)	11 to 100	> 10000
CSCC[C@H](N)C(=O)N[C@@H](CCCNC(=N)N)C(=O)N[C@@H](Cc1ccc(O)cc1)C(=O)N[C@@H](CCCCN)C(=O)N[C@@H](Cc1ccc(O)cc1)C(=O)N[C@H](CCSC)C(N)=O [Peptide 41] (HELM PEPTIDE1{M.R.Y.K.Y.[dM].[am]}$$$$V2.0)	< 10	> 10000
CSCC[C@H](NC(C)=O)C(=O)N[C@@H](CCCNC(=N)N)C(=O)N[C@@H](Cc1ccc(O)cc1)C(=O)N[C@@H](CCCCN)C(=O)N[C@@H](Cc1ccc(O)cc1)C(=O)N[C@H](CCSC)C(N)=O [Peptide 42] (HELM PEPTIDE1{[ac].M.R.Y.K.Y.[dM].[am]}$$$$V2.0)	11 to 100	> 10000
CCCC(=O)N[C@@H](CCSC)C(=O)N[C@@H](CCCNC(=N)N)C(=O)N[C@@H](Cc1ccc(O)cc1)C(=O)N[C@@H](CCCCN)C(=O)N[C@@H](Cc1ccc(O)cc1)C(=O)N[C@H](CCSC)C(N)=O [Peptide 43] (HELM PEPTIDE1{[CCCC(=O)[*:2]].M.R.Y.K.Y.[dM].[am]}$$$$V2.0)	11 to 100	> 10000
CSCC[C@H](NC(=O)[C@@H](N)Cc1c[nH]cn1)C(=O)N[C@@H](CCCNC(=N)N)C(=O)N[C@@H](Cc1ccc(O)cc1)C(=O)N[C@@H](CCCCN)C(=O)N[C@@H](Cc1ccc(O)cc1)C(=O)N[C@H](CCSC)C(N)=O [Peptide 44] (HELM PEPTIDE1{H.M.R.Y.K.Y.[dM].[am]}$$$$V2.0)	11 to 100	> 10000
CCCC(=O)N[C@@H](Cc1c[nH]cn1)C(=O)N[C@@H](CCSC)C(=O)N[C@@H](CCCNC(=N)N)C(=O)N[C@@H](Cc1ccc(O)cc1)C(=O)N[C@@H](CCCCN)C(=O)N[C@@H](Cc1ccc(O)cc1)C(=O)N[C@H](CCSC)C(N)=O [Peptide 45] (HELM PEPTIDE1{[CCCC(=O)[*:2]].H.M.R.Y.K.Y.[dM].[am]}$$$$V2.0)	< 10	> 10000
CSCC[C@H](NC(=O)[C@@H]1CCCN1)C(=O)N[C@@H](CCCNC(=N)N)C(=O)N[C@@H](Cc1ccc(O)cc1)C(=O)N[C@@H](CCCCN)C(=O)N[C@@H](Cc1ccc(O)cc1)C(=O)N[C@H](CCSC)C(N)=O [Peptide 46] (HELM PEPTIDE1{P.M.R.Y.K.Y.[dM].[am]}$$$$V2.0)	< 10	> 10000
CCCC(=O)N1CCC[C@H]1C(=O)N[C@@H](CCSC)C(=O)N[C@@H](CCCNC(=N)N)C(=O)N[C@@H](Cc1ccc(O)cc1)C(=O)N[C@@H](CCCCN)C(=O)N[C@@H](Cc1ccc(O)cc1)C(=O)N[C@H](CCSC)C(N)=O [Peptide 47] (HELM PEPTIDE1{[CCCC(=O)[*:2]].P.M.R.Y.K.Y.[dM].[am]}$$$$V2.0)	< 10	> 10000

Further lines, results first:

EC50 (FPR2) [nM]	EC50 (FPR1) [nM]	Structure (SMILES)
< 10	> 10000	CSCC[C@H](NC(=O)[C@@H]1CCCN1C(C)=O)C(=O)N[C@@H](CCCCN)C(=O)N[C@@H](Cc1ccc(O)cc1)C(=O)N[C@@H](CCCCN)C(=O)N[C@H](C(=O)N[C@H](CCSC)C(N)=O)C(C)C [Peptide 26] (HELM PEPTIDE1{[ac].P.M.K.Y.K.V.[dM].[am]}$$$$V2.0)
< 10	> 10000	CCCC(=O)N1CCC[C@H]1C(=O)N[C@@H](CCSC)C(=O)N[C@@H](CCCCN)C(=O)N[C@@H](Cc1ccc(O)cc1)C(=O)N[C@@H](CCCCN)C(=O)N[C@H](C(=O)N[C@H](CCSC)C(N)=O)C(C)C [Peptide 27] (HELM PEPTIDE1{[CCCC(=O)[*:2]].P.M.K.Y.K.V.[dM].[am]}$$$$V2.0)
< 10	> 10000	CCCCCCCC(=O)N1CCC[C@H]1C(=O)N[C@@H](CCSC)C(=O)N[C@@H](CCCCN)C(=O)N[C@@H](Cc1ccc(O)cc1)C(=O)N[C@@H](CCCCN)C(=O)N[C@H](C(=O)N[C@H](CCSC)C(N)=O)C(C)C [Peptide 28] (HELM PEPTIDE1{[CCCCCCCC(=O)[*:2]].P.M.K.Y.K.V.[dM].[am]}$$$$V2.0)
< 10	> 10000	CSCC[C@@H](NC(=O)[C@@H](NC(=O)[C@H](CCCNC(=N)N)NC(=O)[C@H](Cc1ccc(O)cc1)NC(=O)[C@H](CCCNC(=N)N)NC(=O)[C@H](Cc1c[nH]c2ccccc12)NC(=O)[C@@H](N)CCCNC(=N)N)C(C)C)C(N)=O [Peptide 29] (HELM PEPTIDE1{R.W.R.Y.R.V.[dM].[am]}$$$$V2.0)
< 10	> 10000	CSCC[C@H](NC(=O)[C@@H](N)CCCNC(=N)N)C(=O)N[C@@H](CCCNC(=N)N)C(=O)N[C@@H](Cc1ccc(O)cc1)C(=O)N[C@@H](CCCNC(=N)N)C(=O)N[C@H](C(=O)N[C@H](CCSC)C(N)=O)C(C)C [Peptide 30] (HELM PEPTIDE1{R.M.R.Y.R.V.[dM].[am]}$$$$V2.0)
< 10	1000 to 10000	CSCC[C@H](NC(=O)[C@@H](N)Cc1c[nH]cn1)C(=O)N[C@@H](CCCNC(=N)N)C(=O)N[C@@H](Cc1ccc(O)cc1)C(=O)N[C@@H](CCCNC(=N)N)C(=O)N[C@H](C(=O)N[C@H](CCSC)C(N)=O)C(C)C [Peptide 31] (HELM PEPTIDE1{H.M.R.Y.R.V.[dM].[am]}$$$$V2.0)
< 10	> 10000	CSCC[C@@H](NC(=O)[C@H](Cc1ccc(O)cc1)NC(=O)[C@H](CCCCN)NC(=O)[C@H](Cc1ccc(O)cc1)NC(=O)[C@H](CCCNC(=N)N)NC(=O)[C@H](Cc1c[nH]c2ccccc12)NC(=O)[C@H](CCCNC(=N)N)NC(C)=O)C(N)=O [Peptide 33] (HELM PEPTIDE1{[ac].R.W.R.Y.K.Y.[dM].[am]}$$$$V2.0)
< 10	> 10000	CSCC[C@@H](NC(=O)[C@H](Cc1ccc(O)cc1)NC(=O)[C@H](CCCCN)NC(=O)[C@H](Cc1ccc(O)cc1)NC(=O)[C@H](CCCNC(=N)N)NC(=O)[C@@H](N)Cc1c[nH]c2ccccc12)C(N)=O [Peptide 35] (HELM PEPTIDE1{W.R.Y.K.Y.[dM].[am]}$$$$V2.0)
< 10	> 10000	CSCC[C@@H](NC(=O)[C@H](Cc1ccc(O)cc1)NC(=O)[C@H](CCCCN)NC(=O)[C@H](Cc1ccc(O)cc1)NC(=O)[C@H](CCCCN)NC(=O)[C@H](Cc1c[nH]c2ccccc12)NC(=O)[C@H](CCCCN)NC(C)=O)C(N)=O [Peptide 36] (HELM PEPTIDE1{[ac].K.W.K.Y.K.Y.[dM].[am]}$$$$V2.0)
< 10	> 10000	CCCC(=O)N[C@@H](Cc1c[nH]cn1)C(=O)N[C@@H](Cc1c[nH]c2ccccc12)C(=O)N[C@@H](CCCCN)C(=O)N[C@@H](Cc1ccc(O)cc1)C(=O)N[C@@H](CCCCN)C(=O)N[C@@H](Cc1ccc(O)cc1)C(=O)N[C@H](CCSC)C(N)=O [Peptide 37] (HELM PEPTIDE1{[CCCC(=O)[*:2]].H.W.K.Y.K.Y.[dM].[am]}$$$$V2.0)
